{"source": "patent US20150307938A1", "about": "“METHOD TO IDENTIFY A NOVEL CLASS OF IMMUNOLOGIC ADJUVANTS” (Lancell, L.L.C., priority 2011, published 2015)", "system": "skin", "experiment": "Affymetrix microarray of skin, DBP-4 hr and analogs vs. untreated; gene selection by log-2 fold change, Wilcoxon, Kendall tau (Tables 8, 9)", "format": "in vivo, mouse", "conditions": "mouse, in vivo", "note": "“And” between values parts separate entries of the source, which are not always exact repeats. Equal entries are not always repeated.", "data": [{"smiles": "CCCCOC(=O)c1ccccc1C(=O)OCCCC", "note": "[DBP, dibutylphthalate]", "values": [{"measurement": "AY026312 NM_133359_at ≧2-Fold change", "result": "No"}, {"measurement": "Abcc3 (NM_029600_at) ≧2-Fold change", "result": "Yes"}, {"measurement": "Acot5 (NM_145444_at) ≧2-Fold change", "result": "Yes"}, {"measurement": "Actn2 NM_033268_at ≧2-Fold change", "result": "No"}, {"measurement": "Adamts4 (NM_172845_at) ≧2-Fold change", "result": "Yes"}, {"measurement": "Akap12 (NM_031185_at) ≧2-Fold change", "result": "Yes"}, {"measurement": "Akr1c14 NM_134072_at ≧2-Fold change", "result": "No"}, {"measurement": "Aldh7a1 NM_001127338_at ≧2-Fold change", "result": "No"}, {"measurement": "Angptl4 (NM_020581_at) ≧2-Fold change", "result": "Yes"}, {"measurement": "Aox4 NM_023631_at ≧2-Fold change", "result": "No"}, {"measurement": "Arc (NM_018790_at) ≧2-Fold change", "result": "Yes"}, {"measurement": "Arid5a (NM_145996_at) ≧2-Fold change", "result": "Yes"}, {"measurement": "Arid5a (NR_033310_at) ≧2-Fold change", "result": "Yes"}, {"measurement": "Asb5 NM_029569_at ≧2-Fold change", "result": "No"}, {"measurement": "Atp2a2 NM_001110140_at ≧2-Fold change", "result": "No"}, {"measurement": "Atp13a3 NM_001128094_at ≧2-Fold change", "result": "No"}, {"measurement": "Atp13a3 NM_001128096_at ≧2-Fold change", "result": "No"}, {"measurement": "Bcar3 (NM_013867_at) ≧2-Fold change", "result": "Yes"}, {"measurement": "Bcl3 (NM_033601_at) ≧2-Fold change", "result": "Yes"}, {"measurement": "Bcr NM_001081412_at ≧2-Fold change", "result": "No"}, {"measurement": "Bhlhe40 (NM_011498_at) ≧2-Fold change", "result": "Yes"}, {"measurement": "Calcb (NM_054084_at) ≧2-Fold change", "result": "Yes"}, {"measurement": "Camk2g NM_001039138_at ≧2-Fold change", "result": "No"}, {"measurement": "Camk2g NM_001039139_at ≧2-Fold change", "result": "No"}, {"measurement": "Ccl1 (NM_011329_at) ≧2-Fold change", "result": "Yes"}, {"measurement": "Ccl2 (NM_011333_at) ≧2-Fold change", "result": "Yes"}, {"measurement": "Ccl3 (NM_011337_at) ≧2-Fold change", "result": "Yes"}, {"measurement": "Ccl7 (NM_013654_at) ≧2-Fold change", "result": "Yes"}, {"measurement": "Ccl8 NM_021443_at ≧2-Fold change", "result": "No"}, {"measurement": "Ccl9 (NM_011338_at) ≧2-Fold change", "result": "Yes"}, {"measurement": "Ccl12 (NM_011331_at) ≧2-Fold change", "result": "Yes"}, {"measurement": "Ccl17 (NM_011332_at) ≧2-Fold change", "result": "Yes"}, {"measurement": "Ccl20 (NM_016960_at) ≧2-Fold change", "result": "Yes"}, {"measurement": "Ccl24 NM_019577_at ≧2-Fold change", "result": "No"}, {"measurement": "Cd86 (NM_019388_at) ≧2-Fold change", "result": "Yes"}, {"measurement": "Cd207 (NM_144943_at) ≧2-Fold change", "result": "Yes"}, {"measurement": "Cd209d NM_130904_at ≧2-Fold change", "result": "No"}, {"measurement": "Ckmt2 NM_198415_at ≧2-Fold change", "result": "No"}, {"measurement": "Cldn8 NM_018778_at ≧2-Fold change", "result": "No"}, {"measurement": "Clec4e (NM_019948_at) ≧2-Fold change", "result": "Yes"}, {"measurement": "Clec4n NM_020001_at ≧2-Fold change", "result": "No"}, {"measurement": "Clec7a (NM_020008_at) ≧2-Fold change", "result": "Yes"}, {"measurement": "Clec4d (NM_010819_at) ≧2-Fold change", "result": "Yes"}, {"measurement": "Clic4 (NM_013885_at) ≧2-Fold change", "result": "Yes"}, {"measurement": "Cmya5 NM_023821_at ≧2-Fold change", "result": "No"}, {"measurement": "Comp NM_016685_at ≧2-Fold change", "result": "No"}, {"measurement": "Corin NM_016869_at ≧2-Fold change", "result": "No"}, {"measurement": "Crem (NM_013498_at) ≧2-Fold change", "result": "Yes"}, {"measurement": "Crispld1 NM_031402_at ≧2-Fold change", "result": "No"}, {"measurement": "Cxcl10 NM_021274_at ≧2-Fold change", "result": "No"}, {"measurement": "Cxcl16 (NM_023158_at) ≧2-Fold change", "result": "Yes"}, {"measurement": "Cxcr6 NM_030712_at ≧2-Fold change", "result": "No"}, {"measurement": "Cyr61 (NM_010516_at) ≧2-Fold change", "result": "Yes"}, {"measurement": "Cyth1 NM_001112699_at ≧2-Fold change", "result": "No"}, {"measurement": "Cyth1 NM_001112700_at ≧2-Fold change", "result": "No"}, {"measurement": "Cytip (NM_139200_at) ≧2-Fold change", "result": "Yes"}, {"measurement": "DBP LogFold-Change Versus-Untreated: 1600029D21Rik", "result": 1.52}, {"measurement": "DBP LogFold-Change Versus-Untreated: 1810055G02Rik", "result": 0.89}, {"measurement": "DBP LogFold-Change Versus-Untreated: 5730408K05Rik", "result": 0.91}, {"measurement": "DBP LogFold-Change Versus-Untreated: 1810011010Rik", "result": 1.53}, {"measurement": "DBP LogFold-Change Versus-Untreated: Abcc3", "result": 1.09}, {"measurement": "DBP LogFold-Change Versus-Untreated: Adam8", "result": 1.94}, {"measurement": "DBP LogFold-Change Versus-Untreated: Adamts4", "result": 1.41}, {"measurement": "DBP LogFold-Change Versus-Untreated: Angptl4", "result": 2.61}, {"measurement": "DBP LogFold-Change Versus-Untreated: Aqp3", "result": 0.89}, {"measurement": "DBP LogFold-Change Versus-Untreated: Arc", "result": 1.90}, {"measurement": "DBP LogFold-Change Versus-Untreated: Arid5a", "result": 1.49}, {"measurement": "DBP LogFold-Change Versus-Untreated: Bcar3", "result": 1.08}, {"measurement": "DBP LogFold-Change Versus-Untreated: Bcl3", "result": 2.56}, {"measurement": "DBP LogFold-Change Versus-Untreated: Bhlhe40", "result": 1.26}, {"measurement": "DBP LogFold-Change Versus-Untreated: Birc3", "result": 1.02}, {"measurement": "DBP LogFold-Change Versus-Untreated: Btg2", "result": 1.56}, {"measurement": "DBP LogFold-Change Versus-Untreated: Ccl2", "result": 3.23}, {"measurement": "DBP LogFold-Change Versus-Untreated: Ccl7", "result": 3.11}, {"measurement": "DBP LogFold-Change Versus-Untreated: Ccl12", "result": 3.10}, {"measurement": "DBP LogFold-Change Versus-Untreated: Ccl20", "result": 5.93}, {"measurement": "DBP LogFold-Change Versus-Untreated: Ccrn4l", "result": 1.75}, {"measurement": "DBP LogFold-Change Versus-Untreated: Cd44", "result": 1.31}, {"measurement": "DBP LogFold-Change Versus-Untreated: Cd86", "result": 1.73}, {"measurement": "DBP LogFold-Change Versus-Untreated: Cd207", "result": 1.42}, {"measurement": "DBP LogFold-Change Versus-Untreated: Cebpd", "result": 1.58}, {"measurement": "DBP LogFold-Change Versus-Untreated: Ch25h", "result": 1.91}, {"measurement": "DBP LogFold-Change Versus-Untreated: Cirh1a", "result": 0.79}, {"measurement": "DBP LogFold-Change Versus-Untreated: Cish", "result": 1.12}, {"measurement": "DBP LogFold-Change Versus-Untreated: Clec7a", "result": 2.09}, {"measurement": "DBP LogFold-Change Versus-Untreated: Clic4", "result": 1.12}, {"measurement": "DBP LogFold-Change Versus-Untreated: Coro2a", "result": 0.88}, {"measurement": "DBP LogFold-Change Versus-Untreated: Crem", "result": "1.29 and 1.23"}, {"measurement": "DBP LogFold-Change Versus-Untreated: Csf2rb", "result": 1.11}]}]}
